Laboratory results as given in EP0494283B1, “1,4-BENZODIOXANE DERIVATIVES, PROCESS FOR THE PREPARATION THEREOF AND PHARMACEUTICAL COMPOSITIONS THEREFROM” (LABORATORIOS MENARINI S.A., priority 1990, dated 1992).
Where a name gives a salt, the structure may show the parent alone. Read-outs that look alike come from different tables or passages of the source.

Legend:
Type in all cases: cell-based
[1] = tested on: HL-60 tumor cells; assay: Cytotoxic activity, Trypan Blue exclusion; conditions: Homo sapiens, read-out: Cytotoxicity EC₅₀
Protocol: Suspensions of HL-60 Line cells, obtained starting from human promyelocyte leukemia, are incubated in 6-well culture plates for 24 hours at 37°C, at a concentration of 1 x 10⁶ cells/ml, in the presence of the test products, which have previously been dissolved in the culture medium. Cytotoxicity is measured by means of the Trypan Blue exclusion technique (Practical Immunology, pp 29-32, Oxford, England : Blackwell Scientific Publications, 1976).

[2] = tested on: PAF-induced platelet aggregation; assay: Inhibition of PAF-induced platelet aggregation (aggregometry, washed platelets); conditions: Oryctolagus cuniculus, rabbit washed platelets, on the maximum aggregation values of the PAF standard curve, read-out: Paf-antagonism IC₅₀
Protocol: (§1) Platelets are prepared starting from blood samples obtained by means of a carotid cannula from male albino New Zealand rabbits (2-2.5 kg), subjected to anticoagulant treatment with sodium citrate dihydrate (3.2%) 1:10. Blood is centrifuged (150xg, 10 min, 22°C) to separate the platelet-rich plasma fraction (PRP) from erythrocytes. Platelets are separated from plasmatic components by serial washings and centrifugations (Blood, 1986, 62:337), thereafter they are suspended in a physiological buffer at a concentration of 5 x 10⁵/ml. A 400 µl volume of the above mentioned suspension is placed into the cuvette of a multicanal aggregometer (Aggrecoder HU) where it is kept at constant temperature and stirring. After stabilization, platelets are added with 50 µl of physiological buffer containing 100 µM acetylsalicylic acid and apirase 5 mg/ml, in order to block any non PAF-related platelet activation metabolic pathways. Subsequently the platelet suspensions are added with 50 µl of the different solutions to be tested. Changes in light transmission, due to platelet aggregation in the suspension, are recorded and expressed as percent platelet aggregation, according to the procedure by Born and Cross (J. Physiol., 1962, 162:67). Standard curve is performed with PAF within a concentration range of 0.1-1 nM.
Capability to inhibit PAF-induced platelet aggregation is evaluated by means of the aggregometry technique in suspensions of rabbit washed platelets, obtained by means of the same procedure as described in Example 32. For this purpose, the inhibition potency of the products under test, expressed as the corresponding IC₅₀, is evaluated on the maximum aggregation values obtained in PAF standard curve.

[3] = tested on: rabbit washed platelets; assay: Platelet aggregating effect (aggregometry, washed platelets); conditions: Oryctolagus cuniculus, suspension of rabbit washed platelets, acetylsalicylic acid and apirase added, read-out: Aggregation EC₅₀
Protocol: as §1

[4] = HL-60 cells, 1 x 10⁶ cells/ml, 24 hours at 37°C

`C[N+]1(CCCCCCCCCCOCCCCCCCCCCOCC2COc3ccccc3O2)CCCCC1` (centres unmarked) [Example 26, N-[10-[[10-[[(1,4-Benzodioxan-2-yl)methyl]oxy]decyl]oxy]decyl]-N-methylpiperidinium bromide] showed an EC50 [1, 4] of 28 µM.
Work on `C[N+](C)(C)CCCCCCOCCCCCCCCCCOCC1COc2ccccc2O1` (centres unmarked) [Example 6, N-[6-[[(10-[[1,4-Benzodioxan-2-yl)methyl]oxy]decyl]oxy]hexyl]-N,N,N-trimethylammonium bromide] yielded an EC50 [1, 4] of 11 µM.
Work on `CC[N+](CC)(CC)CCCCCCCCCCOCC1COc2ccccc2O1` (centres unmarked) [Example 10, N-[10-[[(1,4-Benzodioxan-2-yl)methyl]oxy]decyl]-N,N,N-triethylammonium bromide] yielded an IC50 [2] of 90 µM and an EC50 ([1]; HL-60, 24 h) of 30 µM.
Work on `c1ccc2c(c1)OCC(COCCCCN1CCOCC1)O2` (centres unmarked) [Example 16, N-[4-[[(1,4-Benzodioxan-2-yl)methyl]oxy]butyl]morpholine hydrochloride] yielded an EC50 [1, 4] of 18 µM.
In the case of `c1ccc2c(c1)OCC(COCCCCCCCCCCN1CCCCC1)O2` (centres unmarked) [Example 15, N-[10-[[(1,4-Benzodioxan-2-yl)methyl]oxy]decyl]piperidine hydrochloride], the EC50 [1, 4] is reported as 20 µM.
`C[N+](C)(C)CCCCCCCCCCOCC1COc2ccccc2O1` (centres unmarked) [Example 4, N-[10-[[(1,4-Benzodioxan-2-yl)methyl]oxy]decyl]-N,N,N-trimethylammonium bromide] gave an IC50 [2] of 130 µM and an EC50 ([1]; HL-60, 24 h) of 70 µM.
`C[N+]1(CCCCCOCC2COc3ccccc3O2)CCCCC1` (centres unmarked) [Example 21, N-[5-[[(1,4-Benzodioxan-2-yl)methyl]oxy]pentyl]-N-methylpiperidinium iodide] showed an EC50 [3] greater than 190 µM.
`C[N+](C)(C)CCCCCCCCCCOCCCCCCCCCCOCC1COc2ccccc2O1` (centres unmarked) [Example 7, N-[10-[[10-[[(1,4-Benzodioxan-2-yl)methyl]oxy]decyl]oxy]decyl]-N,N,N-trimethylammonium bromide] was tested, and the EC50 [1, 4] was 15 µM.
In the case of `C[N+]1(CCCCCCCCCCOCC2COc3ccccc3O2)CCOCC1` (centres unmarked) [Example 30, N-[10-[[(1,4-Benzodioxan-2-yl)methyl]oxy]decyl]-N-methylmorpholinium iodide], the IC50 [2] is reported as 190 µM and the EC50 ([1]; HL-60, 24 h) is reported as 30 µM.
Molecule `C[N+](C)(C)CCCCCCCCCCCCCCCCOCC1COc2ccccc2O1` (centres unmarked) [Example 5, N-[16[[(1,4-Benzodioxan-2-yl)methyl]oxy]hexadecyl]-N,N,N-trimethylammonium bromide] has an IC50 [2] of 20 µM and an EC50 ([1]; HL-60, 24 h) of 18 µM.
For `C[N+]1(CCCCCCCCCCCCCCCCOCC2COc3ccccc3O2)CCCCC1` (centres unmarked) [Example 24, N-[16-[[(1,4-Benzodioxan-2-yl)methyl]oxy]hexadecyl]-N-methylpiperidinium bromide], the EC50 [1, 4] was 6 µM.
`CC[N+](CC)(CC)CCCCOCC1COc2ccccc2O1` (centres unmarked) [Example 8, N-[4-[[(1,4-Benzodioxan-2-yl)methyl]oxy]butyl]-N,N,N-triethylammonium bromide] gave an EC50 [3] greater than 190 µM.
With `C[N+]1(CCCCCCCCCCOCC2COc3ccccc3O2)CCCCC1` (centres unmarked) [Example 23, N-[10-[[(1,4-Benzodioxan-2-yl)methyl]oxy]decyl]-N-methylpiperidinium bromide] the IC50 [2] was 75 µM and the EC50 ([1]; HL-60, 24 h) was 20 µM.
Molecule `c1ccc2c(c1)OCC(COCCCCCCCCCCN1CCOCC1)O2` (centres unmarked) [Example 19, N-[10-[[(1,4-Benzodioxan-2-yl)methyl]oxy]decyl]morpholine hydrochloride] has an EC50 [1, 4] of 30 µM.
In the case of `C[N+]1(CCCCCCOCCCCCCCCCCOCC2COc3ccccc3O2)CCCCC1` (centres unmarked) [Example 25, N-[6-[[(10-[[1,4-Benzodioxan-2-yl)methyl]oxy]decyl]oxy]hexyl]-N-methylpiperidinium bromide], the EC50 [1, 4] is reported as 3 µM.
